The source of these data is patent US20100184134A1, “DUAL CHARGING SYSTEM FOR SELECTIVELY INTRODUCING NON-NATIVE AMINO ACIDS INTO PROTEINS USING AN IN VITRO SYNTHESIS METHOD” (priority 2009, published 2010).

The target in one experiment is GluRS (Escherichia coli, UniProt P04805). To be noted: read-out: IC50 for inhibition of the rate of cell-free synthesis of turboGFP; cell-free reaction at 30° C., fluorescence monitored for 5 h, maximal rate of fluorescence change. An excerpt:
(§1) Cell-free extracts or lysates were generated to maximize ribosome yield using rapid growth of high cell density fermentations of E. coli strain KGK10 (Knapp, Goerke et al. (2007) Biotechnol Bioeng, 97, 901-8), essentially as described by Liu et al.(Liu, Zawada et al. (2005) Biotechnol Prog, 21, 460-5) DL-dithiothreitol was not added to the cell lysate following homogenization. A modified “run-off procedure” was used to prepare the cell-free extract. Fermentation volume to generate sufficient cell-free extract was typically 2.5× the desired cell-free reaction volume. To inactivate the reducing activity of the cell extract, iodoacetamide (IAM) at various concentrations was added as previously described (Yang, Kanter et al. (2004) Biotechnol Prog, 20, 1689-96). Gene expression was under the control of the T7 promoter. In order to facilitate translation initiation, genes were synthesized (DNA 2.0, Menlo Park, Calif.) with synonymous codons at the 5′ end of the gene with ATG start codon (N-terminal methionine residue) optimized for mRNA instability as measured by mRNA ΔGfold in the −6 to +37 positions (Kudla, Murray et al. (2009) Science, 324, 255-258) and rare codons were replaced. […]

A further experiment concerns the target T1, PheRS (Escherichia coli, UniProt P08312).
T1 construct: endogenous in cells; host or cells: cell-free extract (lysate) of E. coli strain KGK10
In words: Inhibition of the rate of cell-free synthesis of turboGFP by Phe-SA. In kind it is biochemical, E. coli.
Text: as §1

The target in experiment [1] is T2, endogenous activity of PheRS (Escherichia coli, UniProt P08312).
T2 construct: endogenous in cells; host or cells: cell-free extract (lysate) of E. coli strain KGK10
In words: Cell-free synthesis of turboGFP Y50TAG with added uncharged tRNAs in the presence of Phe-SA. Format: biochemical, E. coli. The settings on record: 12 nM Phe-SA; uncharged tRNACUA^Phe and tRNAGAA^Phe added. As for the experimental part: A control reaction containing turboGFP Y50TAG plasmid only yields no fluorescence, consistent with the ca. 6 kD truncated product (cf FIG. 22). The incorporation of para-acetyl phenylalanine at position 50 using the UAG-specific E. coli phenylalanine tRNACUA^Phe and tRNAGAA^Phe was measured in the presence 12 nM Phe-SA inhibitor, to inhibit the endogenous activity of PheRS (cf. FIG. 19c). […] In contrast, addition of various concentrations of both charged pAF-tRNACUA^Phe and Phe-tRNAGAA^Phe results in 13-20% of the wild-type fluorescence after 5 h, consistent with significant protein synthesis with incorporation of pAF at position 50.

What is called IC50 is the point on the concentration scale where inhibition reaches its midpoint.

The structures appear in SMILES notation.

T1 sequence (P07395 whole entry): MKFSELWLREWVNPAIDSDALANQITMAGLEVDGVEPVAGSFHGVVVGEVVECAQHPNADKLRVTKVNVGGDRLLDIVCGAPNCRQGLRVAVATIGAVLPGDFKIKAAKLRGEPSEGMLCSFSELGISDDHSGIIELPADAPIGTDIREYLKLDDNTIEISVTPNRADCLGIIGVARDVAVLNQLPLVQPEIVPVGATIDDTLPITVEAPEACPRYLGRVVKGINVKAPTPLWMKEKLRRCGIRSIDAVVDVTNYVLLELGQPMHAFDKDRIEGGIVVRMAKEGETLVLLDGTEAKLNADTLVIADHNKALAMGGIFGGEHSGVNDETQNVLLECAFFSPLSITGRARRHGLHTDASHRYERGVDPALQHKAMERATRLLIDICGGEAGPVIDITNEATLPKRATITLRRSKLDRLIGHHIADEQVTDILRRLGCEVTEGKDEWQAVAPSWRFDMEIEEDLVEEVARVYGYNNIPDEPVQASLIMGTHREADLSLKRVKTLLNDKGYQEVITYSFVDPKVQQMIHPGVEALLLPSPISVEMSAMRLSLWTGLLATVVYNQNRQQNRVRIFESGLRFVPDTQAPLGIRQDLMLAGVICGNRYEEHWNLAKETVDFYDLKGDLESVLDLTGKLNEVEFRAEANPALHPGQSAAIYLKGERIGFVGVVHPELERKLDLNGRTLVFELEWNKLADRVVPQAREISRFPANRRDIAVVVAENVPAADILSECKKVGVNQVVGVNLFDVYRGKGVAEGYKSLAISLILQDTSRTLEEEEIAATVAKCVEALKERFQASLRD
T1 sequence (P08312 whole entry): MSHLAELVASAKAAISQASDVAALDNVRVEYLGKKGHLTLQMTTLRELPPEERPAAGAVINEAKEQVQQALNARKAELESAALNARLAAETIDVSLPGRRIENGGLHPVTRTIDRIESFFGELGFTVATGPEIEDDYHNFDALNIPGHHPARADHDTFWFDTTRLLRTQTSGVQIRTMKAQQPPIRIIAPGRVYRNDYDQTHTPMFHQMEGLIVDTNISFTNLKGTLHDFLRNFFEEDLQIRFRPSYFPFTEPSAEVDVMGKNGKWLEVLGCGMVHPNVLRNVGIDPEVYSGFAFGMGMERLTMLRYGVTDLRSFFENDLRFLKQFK
T2 sequence (P08312 whole entry): as above
T2 sequence (P07395 whole entry, further chain): as the sequence (P07395 whole entry) above
GluRS, sequence (P04805 whole entry): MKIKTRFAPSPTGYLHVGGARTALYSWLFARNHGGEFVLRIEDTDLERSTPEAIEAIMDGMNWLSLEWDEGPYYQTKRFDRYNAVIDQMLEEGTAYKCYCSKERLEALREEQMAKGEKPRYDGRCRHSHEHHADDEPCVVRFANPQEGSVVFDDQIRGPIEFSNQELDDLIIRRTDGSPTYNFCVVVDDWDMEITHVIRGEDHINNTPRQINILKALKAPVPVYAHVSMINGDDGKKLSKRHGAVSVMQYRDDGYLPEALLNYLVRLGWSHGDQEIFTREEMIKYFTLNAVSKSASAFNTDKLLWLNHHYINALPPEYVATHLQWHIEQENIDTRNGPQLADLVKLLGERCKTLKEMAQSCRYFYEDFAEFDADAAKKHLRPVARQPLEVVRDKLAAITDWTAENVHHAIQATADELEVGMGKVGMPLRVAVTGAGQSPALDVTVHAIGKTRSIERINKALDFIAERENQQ

For `Nc1ncnc2c1ncn2[C@@H]1O[C@H](COS(=O)(=O)NC(=O)[C@@H](N)CCC(=O)O)[C@@H](O)[C@H]1O` [Glu-SA], on GluRS, the IC50 stood at 0.054 µM.

The compound `Nc1ncnc2c1ncn2[C@@H]1O[C@H](COS(=O)(=O)NC(=O)[C@@H](N)Cc2ccccc2)[C@@H](O)[C@H]1O` [Phe-SA, 5′-O-[N-(Phenylalanyl)sulfamoyl] adenosine] displayed an IC50 against PheRS of 0.0008 µM. In addition, the “turboGFP fluorescence activity (percent relative activity)” value on PheRS (1 nM Phe-SA inhibitor) is given as about 50%. The “inhibition of PheRS (no protein synthesized with uncharged tRNAs)” value in experiment [1] is on record as “completely inhibited”.
